Measurements taken from EP0614464B1, “PEPTIDES AND ANTIBODIES FOR TREATMENT OF RHEUMATOID ARTHRITIS” (PEPTIDE THERAPEUTICS LIMITED, priority 1991, dated 1993).
Ends that are not written are not given here. Peptide text beside a SMILES is read from it.

Key:
IgA-α1AT complex = experiment: HPLC analysis of in vitro dissociation of purified IgA-α1AT complex; type: biochemical, human; conditions: for HPLC %: Table 1; for HPLC % / HPLC: minimum peptide concentration giving complex : free IgA ratio at 20% (base-line 14%); for HPLC % / HPLC / HPLC minimum: 90 minutes at 37°C; for HPLC minimum: Table 5, minimum concentration giving complex : free IgA ratio at 20% (base-line 14%), >500µM = no complex dissociation at highest concentration tested
Description: The ability of the peptides of the invention to dissociate purified IgA-α1AT complex in vitro was tested as described below. The anti-rheumatic drug D-penicillamine and other synthetic peptides were used as controls. […] The sample was monitored at wavelength 206nm at a flow rate of 1ml/minute with phosphate buffer (0.1M) pH 7.1. […] They represent the ability of the peptides to dissociate the IgA-α1AT complex in vitro. In these experiments, the base-lines level comprises a complex : free IgA ratio of 14% . The minimum concentration of peptide taken to produce a positive dissociation effect is that which results in a complex: free IgA ratio at 20%. In the results tables, all the peptide values are expressed in µMoles.

[1] = system: mouse macrophage cell line (PU 518); experiment: Macrophage inhibition assay: IgA-α1AT complex-stimulated release of lysosomal enzymes; type: cell-based; conditions: concentration needed to prevent 50% release of β-glucoromidase
Description: A mouse macrophage cell line (PU 518) was stimulated to release lysosomal enzymes by the addition of purified human IgA-α1AT complex. The degree to which this release was then inhibited by the peptides or other drugs was investigated, with the degree of inhibition being indicative of activity; the concentration of peptide or other test drugs giving 50% inhibition being recorded. Briefly the method was as follows:
25µl of peptide or drug was double diluted in […] + 10% foetal calf serum (FCS) in a sterile tissue culture 96 well plate. 25µl of IgA-α1AT complex in RPMI 1640 +10% FCS at about 0.2mg/ml was then added to all wells. 50µl of cells at a concentration of 2 x 10^6 cells/ml in RPMI 1640 + 10% FCS was then added to each well.
Control wells of cells alone and cells + IgA-α1AT complex were also prepared. The plate was then gently mixed and incubated overnight (16hr) at 37°C in a 4% CO2 atmosphere. Plates were then centrifuged at 1200 rpm for 10 minutes in a bench top centrifuge.
40µl of supernatant was then taken from each well and added to a 96 well polystyrene assay plate, to which was added 40µl of 160mM acetate buffer (pH 4.3) containing 2mM phenolphthalein-β-D-glucuronic acid. To obtain a standard curve, dilutions of phenolphthalein in acetate buffer from 100-5µg/ml were also added to separate wells in the assay plate.
The plates were then incubated at 37°C for 4 hours before 150µl of 0.2M glycine/NaOH buffer (pH 10.6) containing 0.2M NaCl was added to stop the reaction.
Plates were then shaken for 3 minutes before the optical density at 570nm was read on a plate reader, and the amount of β-D-glucuronic acid released from the cells calculated. The concentration of peptide or drug giving 50% inhibition of release was then noted.
The results for the macrophage inhibition assays are expressed as the concentration needed to prevent 50% release of β-glucoromidase.

[2] = system: alternative complement (C3) pathway; experiment: Inhibition of C3-activation: preventing IgA-α1AT complex from activating the alternative complement pathway, rabbit erythrocyte haemolysis read-out; type: biochemical, human; conditions: for C': minimum concentration of peptide needed to prevent C3 activation; for C' minimum: Table 5, minimum concentration needed to prevent C3 activation
Description: Various peptides were tested for their ability to prevent the IgA-α1AT complex from activating the alternative complement (C3) pathway.
The method of measuring the capacity to activate the alternative complement pathway by the non-immune IgA-α1AT complex and the subsequent inhibition of this activation by anti-rheumatic peptides is described below.
This method was based on the method described by Riches and Stanworth, Immunology Letters, 1980, 1, 363,366, with modification to miniaturise it thus allowing the assay to be carried out on microtitre plates.
The initial observation by Platts-Mills and Ishizaka (J Immunol. (1974) 113, 348,358) that low dilutions of fresh normal human serum, from which calcium had been removed by chelation with 10mM EGTA to block the classical complement pathway, caused greater than 90% haemolysis of unsensitised rabbit erythrocytes when incubated at 37°C was employed in this assay.
The non-immune complex IgA-α1AT had been shown in the past to be the only known soluble complex to activate the alternative pathway complement and […] of the rabbit erythrocytes. This inhibition required biologically active complex.
The buffers solutions required in this assay were (a) Total lysis buffer (1% Triton100 in ultra pure water), (b) Alternative pathway complement fixation diluent (APCFD) which was:- • 83 volumes CFD, DH 7.2 (1 oxoid tablet: 100ml UPW) • 10 volumes 0.1M EGTA pH 7.2 • 7 volumes MgCl2 pH 7.2
Blood was obtained by venipuncture from a healthy human individual. The blood was allowed to clot for 1 hour at room temperature and then stored overnight at 4°C. The serum was removed and stored at -70°C in lml aliquots. For use, the serum was defrosted and 100µl of 0.1m EGTA pH 7.2 and 70µl O.lm MgCl2 pH 7.2 was added.
Rabbit red blood cells (RBC) were obtained by venipuncture of a healthy rabbit and collected into 0.1M citrate buffer pH 6.2. The RBC were washed 3 times in citrate buffer and the cells were stored in this buffer which was changed every week. It was possible to store cells in this way for 3 weeks. Peptides
The peptides were synthesised as described in Example 1 and made up in UPW to lmM. They were kept frozen at -70°C prior to use.
This was prepared as previously described in Example 2. It was kept frozen in small aliquots prior to use.
Using a round bottomed welled flexible microtitre plate 100µl neat serum (with added EGTA and MgCl2) was added to the first wells in duplicate. This was double diluted out, with APCFD to give a volume of 50µl well. 8 test wells (+ duplicates) were sufficient. 8 wells were prepared as a positive control - (100µl 1% Triton/UPW). 8 wells were prepared as a negative control - (100µl APCFD (Blank)).
50µl of APCFD was added to the test wells and 50µl of 1% rabbit RBC was added to all wells. The plate was then incubated at 37°C for 30 minutes and then centrifuged for 10 minutes at 2000 rpm.
75µl of the supernatant was carefully removed and plated onto a flat bottom welled microtitre plate. The plates were then read at 410nm interference, 690nm reference. The zero or blank value was calculated as the mean value of negative control wells and using the mean of the positive control wells, the percentage lysis for serum dilutions was calculated. In future assays the serum dilution in which lysis was approx. 80% of Rb RBC was used. This was usually in the range 1:4 - 1:6 dilution (ie. lml serum : 4ml APCFD - 6ml APCFD).
A 1:1 dilution of IgA-α1AT complex was made with twice concentrated APCFD. 100µl of this 1:1 dilution of complex was added to the first wells in duplicate. This was double diluted out with APCFD to give 50 µl per well. 50µl of the predetermined dilution of serum (see (i) above) was added to each well. Positive and negative control wells as described in (a) above and wells containing serum alone were used as controls. The plates were incubated at 37°C for 30 minutes and then centrifuged at 2000 rpm for 1 minute. […]

[3] = system: alternative complement (C3) pathway; experiment: as above; type: biochemical, human; conditions: Table 5; minimum concentration needed to prevent C3 activation

For `NCCCC[C@H](NC(=O)[C@H](CCCCN)NC(=O)[C@H](CS)NC(=O)[C@@H](N)Cc1c[nH]cn1)C(N)=O` [Peptide 132, HCKKnh2] (H-HCKK-NH2), the “HPLC %” value (IgA-α1AT complex) was 10 µM, the IC50 ([1]; Table 1, 16hr incubation) was 60 µM and the “C'” value ([2]; Table 1) was 16 µM.
In the case of HCKKGD-NH2 [Peptide 121, HCKKGDnh2], the “HPLC” value (IgA-α1AT complex; Table 4) is reported as 125 µM and the “C'” value ([2]; Table 4) is reported as 62 µM.
For EHCKK-NH2 [Peptide 154, EHCKKnh2], the “HPLC” value (IgA-α1AT complex; Table 3) was 5 µM and the “C'” value ([2]; Table 3) was less than 2 µM.
HCKKE-NH2 [Peptide 150, HCKKEnh2] was tested, and the “HPLC” value (IgA-α1AT complex; Table 4) was 50 µM and the “C'” value ([2]; Table 4) was 8 µM.
For DGGHCKK-NH2 [Peptide 118, DGGHCKKnh2], the “HPLC” value (IgA-α1AT complex; Table 3) was 50 µM.
HCKKGGE-NH2 [Peptide 152, HCKKGGEnh2] was tested, and the “HPLC” value (IgA-α1AT complex; Table 4) was 10 µM and the “C'” value ([2]; Table 4) was 125 µM.
In the case of “HCCGKnh2 [Peptide 147, reference compound]”, the “HPLC minimum” value (IgA-α1AT complex) is reported as 10 µM, the IC50 ([1]; Table 5, head prints no unit, b70 says all values of the results tables are in µMoles) is reported as 250 µM and the “C' minimum” value [2] is reported as 32 µM.
In the case of HYCKK-NH2 [Peptide 199, HYCKKnh2], the “HPLC %” value (IgA-α1AT complex) is reported as 10 µM and the “C'” value ([2]; Table 1) is reported as 3.9 µM.
For `C[C@@H](N)C(=O)N[C@@H](Cc1c[nH]cn1)C(=O)N[C@@H](CS)C(=O)N[C@@H](CCCCN)C(=O)N[C@@H](CCCCN)C(=O)N[C@H](C)C(N)=O` [Peptide 210, dAHCKKdAnh2, reference compound] (HELM PEPTIDE1{[dA].H.C.K.K.[dA].[am]}$$$$V2.0), the “HPLC minimum” value (IgA-α1AT complex) was 10 µM and the “C' minimum” value [2] was 3.9 µM.
In the case of `C[C@@H](NC(=O)[C@H](CCCCN)NC(=O)[C@H](CCCCN)NC(=O)[C@H](CS)NC(=O)[C@@H](N)Cc1c[nH]cn1)C(N)=O` [Peptide 206, HCKKdAnh2] (HELM PEPTIDE1{H.C.K.K.[dA].[am]}$$$$V2.0), the “HPLC” value (IgA-α1AT complex; Table 4) is reported as 50 µM and the “C'” value ([2]; Table 4) is reported as 31.3 µM.
With HCKKD-NH2 [Peptide 120, HCKKDnh2] the “HPLC” value (IgA-α1AT complex; Table 4) was 50 µM, the IC50 ([1]; Table 4, 16hr incubation) was 25 µM and the “C'” value ([2]; Table 4) was 62 µM.
For HCKKGGD-NH2 [Peptide 122, HCKKGGDnh2], the “HPLC” value (IgA-α1AT complex; Table 4) was 50 µM and the “C'” value ([2]; Table 4) was 31 µM.
For DHCKK-NH2 [Peptide 113, DHCKKnh2], the “HPLC” value (IgA-α1AT complex; Table 3) was 10 µM, the IC50 ([1]; Table 3, 16hr incubation) was 70 µM and the “C'” value ([2]; Table 3) was 78 µM.
DGHCKK-NH2 [Peptide 119, DGHCKKnh2] was tested, and the “HPLC” value (IgA-α1AT complex; Table 3) was 10 µM.
HFCKK-NH2 [Peptide 208, HFCKKnh2] was tested, and the “HPLC %” value (IgA-α1AT complex) was 10 µM and the “C'” value ([2]; Table 1) was 3.9 µM.
`N[C@@H](CCC(=O)N[C@@H](CS)C(=O)NCC(=O)O)C(=O)O` [Glutathione] was tested, and the “HPLC minimum” value (IgA-α1AT complex) was 500 µM, the activity (IgA-α1AT complex; comment in words on Tables 3-5, assay not given, fits the HPLC values) was “relatively inactive” and the “C' minimum” value [3] was 31 µM.
